In the NIST ThermoML archive (doi:10.1021/je800110r):
Values joined by “and” are separate entries in the source; they are usually repeats but may differ in a detail not shown here. Equal entries are not always repeated.

Details: Liquid, Vibrating tube method

CCCCCCCCCC [decane]
Details | mass density
313.16 K, 749 kPa | 715.1 kg/m3
313.16 K, 764 kPa | 715.3 kg/m3
313.16 K, 784 kPa | 715.3 kg/m3
313.16 K, 800 kPa | 715.3 kg/m3
313.16 K, 813 kPa | 715.2 kg/m3
313.16 K, 837 kPa | 715.4 kg/m3
313.16 K, 852 kPa | 715.2 kg/m3
313.16 K, 870 kPa | 715.4 kg/m3
313.16 K, 891 kPa | 715.4 kg/m3
313.16 K, 916 kPa | 715.3 kg/m3
313.16 K, 938 kPa | 715.3 kg/m3
313.16 K, 958 kPa | 715.5 kg/m3
313.16 K, 978 kPa | 715.4 kg/m3
323.14 K, 3098 kPa | 709.7 kg/m3
323.14 K, 3118 kPa | 709.8 kg/m3
323.14 K, 3138 kPa | 709.6 kg/m3
323.14 K, 3156 kPa | 709.6 kg/m3
323.14 K, 3176 kPa | 709.7 kg/m3
323.14 K, 3200 kPa | 709.7 kg/m3
323.14 K, 3221 kPa | 709.8 kg/m3
323.14 K, 3243 kPa | 709.8 kg/m3
323.14 K, 3271 kPa | 709.9 kg/m3
323.14 K, 3297 kPa | 709.9 kg/m3
323.14 K, 3322 kPa | 709.9 kg/m3
323.14 K, 3345 kPa | 709.8 kg/m3
323.14 K, 3372 kPa | 709.8 kg/m3
323.14 K, 3400 kPa | 710 kg/m3
323.14 K, 3430 kPa | 709.9 kg/m3
323.14 K, 3451 kPa | 710 kg/m3
323.14 K, 3477 kPa | 710 kg/m3
323.14 K, 3502 kPa | 710.1 kg/m3
323.14 K, 3524 kPa | 710.2 kg/m3
323.14 K, 3549 kPa | 710.1 kg/m3
323.14 K, 3571 kPa | 710.1 kg/m3
323.14 K, 3597 kPa | 710.2 kg/m3
323.14 K, 3614 kPa | 710.1 kg/m3
323.14 K, 3637 kPa | 710.2 kg/m3
323.14 K, 3661 kPa | 710.2 kg/m3
323.14 K, 3681 kPa | 710.1 kg/m3
323.14 K, 3715 kPa | 710.2 kg/m3
323.14 K, 3736 kPa | 710.3 kg/m3
323.14 K, 3761 kPa | 710.4 kg/m3
323.14 K, 3794 kPa | 710.3 kg/m3
323.14 K, 3819 kPa | 710.3 kg/m3
323.14 K, 3849 kPa | 710.3 kg/m3
323.14 K, 3879 kPa | 710.4 kg/m3
323.14 K, 3911 kPa | 710.4 kg/m3
323.14 K, 3939 kPa | 710.5 kg/m3
323.14 K, 3959 kPa | 710.5 kg/m3
323.14 K, 3978 kPa | 710.4 kg/m3
323.14 K, 4004 kPa | 710.5 kg/m3
323.14 K, 4033 kPa | 710.5 kg/m3
323.14 K, 4053 kPa | 710.5 kg/m3
323.14 K, 4078 kPa | 710.6 kg/m3
323.14 K, 4103 kPa | 710.7 kg/m3
323.14 K, 4122 kPa | 710.7 kg/m3
323.14 K, 4144 kPa | 710.6 kg/m3
323.14 K, 4164 kPa | 710.6 kg/m3
323.14 K, 4191 kPa | 710.6 kg/m3
323.14 K, 4213 kPa | 710.8 kg/m3
323.14 K, 4230 kPa | 710.8 kg/m3
323.14 K, 4248 kPa | 710.7 kg/m3
323.14 K, 4405 kPa | 710.9 kg/m3
323.14 K, 4447 kPa | 710.9 kg/m3
323.14 K, 4462 kPa | 710.9 kg/m3
323.14 K, 4506 kPa | 711 kg/m3
323.14 K, 4528 kPa | 711 kg/m3
323.14 K, 4550 kPa | 711 kg/m3
323.14 K, 4566 kPa | 711 kg/m3
323.14 K, 4587 kPa | 711 kg/m3
323.14 K, 4704 kPa | 711.1 kg/m3
323.14 K, 4721 kPa | 711.2 kg/m3
323.14 K, 4739 kPa | 711.2 kg/m3
323.14 K, 4770 kPa | 711.2 kg/m3
323.14 K, 4793 kPa | 711.3 kg/m3
323.14 K, 4804 kPa | 711.2 kg/m3
323.14 K, 4818 kPa | 711.3 kg/m3
323.14 K, 4838 kPa | 711.3 kg/m3
323.14 K, 4970 kPa | 711.3 kg/m3
323.14 K, 5064 kPa | 711.5 kg/m3
323.14 K, 5127 kPa | 711.5 kg/m3
323.14 K, 5175 kPa | 711.5 kg/m3
323.14 K, 5178 kPa | 711.6 kg/m3
323.14 K, 5183 kPa | 711.6 kg/m3
323.14 K, 5184 kPa | 711.5 kg/m3
323.14 K, 5187 kPa | 711.6 kg/m3
323.14 K, 5189 kPa | 711.6 kg/m3
323.14 K, 5191 kPa | 711.6 kg/m3
323.14 K, 5192 kPa | 711.5 kg/m3 and 711.6 kg/m3
323.14 K, 5193 kPa | 711.5 kg/m3
323.14 K, 5216 kPa | 711.7 kg/m3
323.14 K, 5238 kPa | 711.6 kg/m3
323.14 K, 5256 kPa | 711.7 kg/m3
323.14 K, 5276 kPa | 711.6 kg/m3
323.14 K, 5291 kPa | 711.7 kg/m3
323.14 K, 5312 kPa | 711.6 kg/m3
323.14 K, 5335 kPa | 711.7 kg/m3
323.14 K, 5353 kPa | 711.8 kg/m3
323.14 K, 5375 kPa | 711.7 kg/m3
323.14 K, 5406 kPa | 711.8 kg/m3
323.14 K, 5428 kPa | 711.7 kg/m3
323.14 K, 5450 kPa | 711.7 kg/m3
323.14 K, 5468 kPa | 711.9 kg/m3
323.14 K, 5487 kPa | 711.9 kg/m3
323.14 K, 5506 kPa | 711.8 kg/m3
323.14 K, 5535 kPa | 711.9 kg/m3
323.14 K, 5551 kPa | 711.8 kg/m3
323.14 K, 5575 kPa | 712 kg/m3
323.14 K, 5594 kPa | 711.9 kg/m3
323.14 K, 5611 kPa | 712 kg/m3
323.14 K, 5631 kPa | 712 kg/m3
323.14 K, 5670 kPa | 712 kg/m3
323.14 K, 5697 kPa | 712.1 kg/m3
323.14 K, 5721 kPa | 712.1 kg/m3
323.14 K, 5738 kPa | 712.1 kg/m3
323.14 K, 5756 kPa | 712 kg/m3
323.14 K, 5770 kPa | 712 kg/m3
323.14 K, 5788 kPa | 712 kg/m3
323.14 K, 5909 kPa | 712.2 kg/m3
323.14 K, 5924 kPa | 712.2 kg/m3
323.14 K, 5940 kPa | 712.3 kg/m3
323.14 K, 5955 kPa | 712.2 kg/m3
323.14 K, 5968 kPa | 712.3 kg/m3
323.14 K, 5986 kPa | 712.3 kg/m3
323.14 K, 6004 kPa | 712.2 kg/m3
323.14 K, 6022 kPa | 712.4 kg/m3
323.14 K, 6037 kPa | 712.3 kg/m3
323.14 K, 6056 kPa | 712.3 kg/m3
323.14 K, 6076 kPa | 712.5 kg/m3
323.14 K, 6089 kPa | 712.4 kg/m3
323.14 K, 6105 kPa | 712.3 kg/m3
323.14 K, 6124 kPa | 712.5 kg/m3
323.14 K, 6144 kPa | 712.5 kg/m3
323.14 K, 6167 kPa | 712.5 kg/m3
323.14 K, 6179 kPa | 712.3 kg/m3
323.14 K, 6202 kPa | 712.5 kg/m3
323.14 K, 6217 kPa | 712.4 kg/m3
